Results: US12391679B2, “Benzamide-substituted bicyclic imidazo- and pyrazolo-fused -pyridine, -pyrimide, and -pyridazine compounds for treatment of inflammatory diseases” (ONCO3R Therapeutics BV, priority 2019, dated 2025)

What follows are compounds tested on LPS triggered IL-10 secretion in monocytes (assay: Monocytes assay: LPS-triggered IL-10 (ELISA)). Settings: Homo sapiens, Monocyte, LPS-triggered IL-10 induction, median maximal fold change vs LPS only, read-out: IL-10 FCmax median.
Format: cell-based, human
Procedure, shortened: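 CD14+ monocytes bead-isolated from human PBMCs, pretreated with compound 1 h at 37 °C (0.2% DMSO), then stimulated with LPS 200 ng/mL for 4 h. Supernatant IL-10 measured by chemiluminescent sandwich ELISA; fold change versus LPS only per concentration, reported as maximal fold change (FCmax).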
In the case of `COc1cc(-c2cnn3cc(C4COCCO4)ccc23)cc(OC(F)F)c1C(=O)NC1CC1` (stereo not drawn) [Cpd 232, N-cyclopropyl-2-(difluoromethoxy)-4-[6-(1,4-dioxan-2-yl)pyrazolo[1,5-a]pyridin-3-yl]-6-methoxy-benzamide], the maximal fold induction is reported as < 1.5. `COc1cc(-c2cnn3cc(C(C)(C)CO)ccc23)cc(OC(F)F)c1C(=O)NC1CC1` [Cpd 236, N-cyclopropyl-2-(difluoromethoxy)-4-[6-(2-hydroxy-1,1-dimethyl-ethyl)pyrazolo[1,5-a]pyridin-3-yl]-6-methoxy-benzamide] was tested, and the maximal fold induction was < 1.5. In the case of `COc1cc(-c2cnn3cc(C4(C#N)CCOCC4)ccc23)cc(OC(F)F)c1C(=O)NC1CC1` [Cpd 237, 4-[6-(4-cyanotetrahydropyran-4-yl)pyrazolo[1,5-a]pyridin-3-yl]-N-cyclopropyl-2-(difluoromethoxy)-6-methoxy-benzamide], the maximal fold induction is reported as < 1.5. `COc1cc(-c2cnn3cc(C4(O)CCC4)ccc23)cc(OC(F)F)c1C(=O)N[C@@H]1C[C@@H]1F` [Cpd 266, 2-(difluoromethoxy)-N-[(1R,2S)-2-fluorocyclopropyl]-4-[6-(1-hydroxycyclobutyl)pyrazolo[1,5-a]pyridin-3-yl]-6-methoxy-benzamide] was tested, and the maximal fold induction was < 1.5. `COc1cc(-c2cnn3cc(C(C)(C)CN4CCOCC4)ccc23)cc(OC(F)F)c1C(=O)N[C@@H]1C[C@@H]1F` [Cpd 269, 2-(difluoromethoxy)-4-[6-(1,1-dimethyl-2-morpholino-ethyl)pyrazolo[1,5-a]pyridin-3-yl]-N-[(1R,2S)-2-fluorocyclopropyl]-6-methoxy-benzamide] was tested, and the maximal fold induction was 1.5 to 4.5. `[2H]C([2H])([2H])C(C#N)(c1ccc2c(-c3cc(OC)c(C(=O)N[C@@H]4C[C@@H]4F)c(OC(F)F)c3)cnn2c1)C([2H])([2H])[2H]` [Cpd 275, 4-[6-[1-cyano-2,2,2-trideuterio-1-(trideuteriomethyl)ethyl]pyrazolo[1,5-a]pyridin-3-yl]-2-(difluoromethoxy)-N-[(1R,2S)-2-fluorocyclopropyl]-6-methoxy-benzamide] showed a maximal fold induction of 1.5 to 4.5.
